Assays:
[1] = biological target: T1, Recombinant human CASP1 (Homo sapiens, UniProt P29466); assay: CASP1 enzymatic assay: cleavage of glucocorticoid receptor (NR3C1) by recombinant CASP1; assay type: biochemical; conditions: for CASP1-induced cleavage of the glucocorticoid receptor (NR3C1): recombinant human CASP1, 30° C., inhibitor 10 μM unless otherwise indicated, FIG. 3A, 3C
T1 construct: purchased Enzo Life Sciences BML-AK701-0001
T1 sequence (P29466 120-297): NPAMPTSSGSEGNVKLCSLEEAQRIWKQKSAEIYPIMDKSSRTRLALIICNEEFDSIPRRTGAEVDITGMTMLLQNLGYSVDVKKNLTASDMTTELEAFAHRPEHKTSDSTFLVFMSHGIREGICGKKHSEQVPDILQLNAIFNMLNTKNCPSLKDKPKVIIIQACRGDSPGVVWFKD
T1 sequence (P29466 317-404): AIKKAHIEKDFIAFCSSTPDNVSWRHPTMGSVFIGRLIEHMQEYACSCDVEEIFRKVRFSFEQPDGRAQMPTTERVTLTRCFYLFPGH
Procedure: Recombinant human CASP1 (100-200 U, where U=1 pmol/min at 30° C., 200 μM YVAD-pNA (SEQ ID NO: 21)) from a CASP1 assay kit for drug discovery (Enzo Life Sciences, Farmingdale, N.Y., catalog number BML-AK701-0001) was incubated at 30° C. with wild-type or mutated GR in the presence (10 μM unless otherwise indicated) or absence of inhibitors, (Ac-YVAD-CHO (SEQ ID NO: 18), Enzo Life Sciences, Farmingdale, N.Y., catalog number BML-P403-9090), VX765, VRT-043198).
Cells were pelleted by centrifugation, washed once with PBS and lysed with RIPA buffer or caspase-1 assay buffer (Enzo Life Sciences, Farmingdale, N.Y. catalog number KI-111), equal amounts of proteins (1-20 μg) separated by 4-12% Novex Bis-Tris gels (Life Technologies, Grand Island, N.Y.), and then transblotted to PVDF membranes (Life Technologies, Grand Island, N.Y.). Anti-GR (1:1000-1:10,000, BD catalog number 611227), anti-DDK […] (1:1000, Origene catalog number TA50011), anti-Bim (1:1000, Cell Signalling catalog number 2819) or anti-Tubulin (1:1000, Santa Cruz, sc-8035) were used as primary antibodies followed by appropriate secondary HRP-conjugated IgG (1:1000, Dako) and immunocomplexes were visualized by chemiluminescence.

[2] = test system: Nalm6 leukemia cell line; assay: MTT drug sensitivity assay in Nalm6 cells with enforced CASP1 expression or empty vector; assay type: cell-based, human; conditions: for increase in resistance (LC50) by CASP1 over-expression: Nalm6 cells transduced with CASP1, after activation of NLRP3 inflammasome (LPS/ATP), average
Procedure: Leukemia cells were isolated at diagnosis from patient bone marrow aspirates. If the leukemia cell percentage from diagnostic bone marrow samples was less than ninety percent, magnetic activated cell sorting (Miltenyl Biotec, Auburn, Calif.) was performed to further enrich for leukemia cells. If red cell contamination was greater than thirty percent, red blood cell lysis was performed. Cells were centrifuged at 300 g for five minutes and resuspended at a concentration of two million cells per milliliter. Eighty microliters of this leukemia cell suspension was then plated into each experimental well of round-bottom 96-well plates. Twenty microliters of decreasing concentrations of prednisolone were added and the plates were incubated for ninety-six hours in a humidified incubator containing 5% CO2 at 37° C. For the final six hours, ten microliters of 5 milligram per milliliter MTT (3-4,5-dimethylthiazol-2,5-diphenyl tetrazolium bromide) was added to each experimental well. Drug resistance assays in cell lines were performed using between 0.25 and 2.5 million cells per milliliter. Assays were developed and performed as for patient sample assays. LC50 values were determined as previously described (Holleman et al., 2004).
Full-length CASP1 (Origene, Rockville, Md., catalog # RC218364; GenBank Accession No. NM_033292) was subcloned into a lentiviral backbone (System Biosciences, Mountain View, Calif., catalog number CD527A-1), in frame with a T2A linked puromycin resistance gene. Lentivirus was produced in 293T cells and the Nalm6 leukemia cell line was transduced. 72 hours post transduction, cells were selected with 2.5 micrograms per milliliter puromycin. Where indicated cells were treated with 10 μg/mL LPS (InvivoGen, San Diego, Calif.) followed 2 hours later by 5 mM ATP (Roche, Pleasanton, Calif.).

[3] = test system: NALM-6 cells overexpressing CASP1; assay type: cell-based, human; conditions: CASP1 overexpressing ALL (NALM-6) cells transduced with the named shRNA, +LPS/ATP, MTT, mean±S.E.M., n=4; read-out: LC50 (glucocorticoid sensitivity, prednisolone)
Procedure: The sensitivity (LC50) of shCASP1 and shNT cells to prednisolone was determined by MTT assays (Panel B). […] Error bars represent S.E.M; n=4 replicate experiments.
NALM-6 cells overexpressing CASP1 co-transfected with either non-targeting scrambled hairpin (shNT; SEQ ID NO: 13) or shRNA hairpins targeting CASP1 (shCASP1; SEQ ID NO: 14) were stably transduced with lentiviral vectors (Addgene plasmid 25890; Sigma-Aldrich, St. Louis, Mo.) containing a wild-type glucocorticoid receptor (SEQ ID NO: 16) or a glucocorticoid receptor in which both CASP1 cleavage sites had been eliminated (double mutagenized GR, DM-GR (SEQ ID NO: 17)).
Cells were centrifuged at 300 g for five minutes and resuspended at a concentration of two million cells per milliliter. Eighty microliters of this leukemia cell suspension was then plated into each experimental well of round-bottom 96-well plates. Twenty microliters of decreasing concentrations of prednisolone were added and the plates were incubated for ninety-six hours in a humidified incubator containing 5% CO2 at 37° C. For the final six hours, ten microliters of 5 milligram per milliliter MTT (3-4,5-dimethylthiazol-2,5-diphenyl tetrazolium bromide) was added to each experimental well. […] LC50 values were determined as previously described (Holleman et al., 2004). […]

Compound | CASP1-induced cleavage of the glucocorticoid receptor (NR3C1) [1] | increase in resistance (LC50) by CASP1 over-expression [2] [fold] | further results
CC(C)(C)[C@@H](NC(=O)c1ccc(N)c(Cl)c1)C(=O)N1CCC[C@H]1C(=O)N[C@H](C=O)CC(=O)O [VRT043198, (S)-3-((S)-1-((R)-2-(4-amino-3-chlorobenzamido)-3,3-dimethylbutanoyl)pyrrolidine-2-carboxamido)-4-oxobutanoic acid] | inhibited | – | inhibitory activity on CASP1 cleavage of NR3C1 compared with VX-765 ([1]; FIG. 3C): higher inhibitory activity
CCO[C@H]1OC(=O)C[C@@H]1NC(=O)[C@@H]1CCCN1C(=O)[C@H](NC(=O)c1ccc(N)c(Cl)c1)C(C)(C)C [VX765, (S)-1-((R)-2-(4-amino-3-chlorobenzamido)-3,3-dimethylbutanoyl)-N-((2S,3S)-2-ethoxy-5-oxotetrahydro-furan-3-yl)pyrrolidine-2-carboxamide] | inhibited | – | –
C[C@@H]1C[C@H]2[C@@H]3CCC4=CC(=O)C=C[C@]4(C)[C@@]3(F)[C@@H](O)C[C@]2(C)[C@@]1(O)C(=O)CO [dexamethasone] | – | 5.3 | –
C[C@]12C=CC(=O)C=C1CC[C@@H]1[C@@H]2[C@@H](O)C[C@@]2(C)[C@H]1CC[C@]2(O)C(=O)CO [prednisolone] | – | 16.9 | difference in sensitivity on activation of the NLRP3 inflammasome and CASP1 ([2]; Nalm6 cells transduced with empty vector control virus): no difference
shNT: non-targeting scrambled shRNA hairpin, control (CCGGCAACAAGATGAAGAGCACCAACTCGAGTTGGTGCTCTTCATCTTGTTGTTTTT) | – | – | CC50 [3]: 570 ± 423 µM

Source: US10457946B2, “Methods for overcoming glucocorticoid resistance and for determining glucocorticoid resistance potential in cancer” (St. Jude Children's Research Hospital, Inc., priority 2013, dated 2019)
